Experimental data: patent publication US12692259B2, “Morpholine-containing and piperazine-containing CXCR4 modulators and uses related thereto” (Emory University, priority 2021, dated 2026)

Columns and labels:
CYP450 isoforms 3A4 = CYP450 isoforms 3A4 (Homo sapiens, UniProt P08684); conditions: cited from earlier work
CYP450 isoforms 2D6 = CYP450 isoforms 2D6 (Homo sapiens, UniProt P10635); conditions: cited from earlier work
CYP3A4 = molecular target: T1, CYP3A4 (Homo sapiens, UniProt P08684); experiment: Fluorometric CYP450 inhibition assay, CYP3A4; assay type: in vitro ADME; conditions: read-out: CYP450 IC50 (μM) 3A4
T1 construct: purchased Corning; host or cells: insect cells (microsomes)
Experimental: (§1) The CYP450 inhibition assays utilized microsomes from insect cells expressing human recombinant individual cDNA-expressed CYP isoforms 3A4 and 2D6, as well as the fluorogenic probe that produces fluorescent metabolite. Standard inhibitors were co-incubated with fluorogenic substrates and their inhibitory potential (IC50) was determined. Assay conditions in terms of CYP450 protein concentration and time of incubation were standardized, enzyme kinetics parameters of each fluorescent probe substrate were estimated and IC50 values of inhibitors were determined and validated on different days to check reproducibility.
(§2) A 100 mM sodium phosphate buffer was prepared and adjusted to pH 7.4. In a separate falcon tube, a 2× enzyme/substrate (E/S) solution was prepared in phosphate buffer. The final concentration of CYP2D6 (CORNING®) and 7-amido-4-methyl coumaric acid (AMMC) was 10 nM and 4 μM, and CYP3A4 (CORNING®) and 7-benzyloxy-4-(trifluoromethyl) coumarin (BFC) was 20 nM and 40 μM, respectively. In a separate falcon tube, a 2×NADPH regenerating system (NRS) was prepared in phosphate buffer.
(§3) Both enzymatic assays were conducted in a 96-well microtiter plate (Black, CORNING® COSTAR®) with a final volume of 100 μL. Preparation of the plate began with the addition of 74 μL of the E/S in the first well, and 50 μL to all subsequent wells (from 2-11). […] A 1:3 serial dilution of the test compound was conducted by removing 25 μL from the first well and diluting it with the second and so forth until the tenth row. Final concentrations yielded a range from 200 μM-0.01 μM. Well no. 11 contained no inhibitor, and well no. 12 contained no enzyme. Both were used as controls for background fluorescence. The plate was incubated for 30 min at 37° C. After incubation, the reaction was initiated by the addition of 50 μL of the 2×NRS to each well.
(§4) Immediately (within 1 min) the fluorescence was measured using a microplate reader (BIOTEK® Synergy Neo2). […] Data was exported and analyzed using Graph Pad Prism 7. […] The IC50 value was derived after the data was fitted on a 10-point curve using a four-parameter logistic regression model.

CYP2D6 = molecular target: T2, CYP2D6 (Homo sapiens, UniProt P10635); experiment: Fluorometric CYP450 inhibition assay, CYP2D6; assay type: in vitro ADME; conditions: read-out: CYP450 IC50 (μM) 2D6
T2 construct: purchased Corning; host or cells: insect cells (microsomes)
Experimental: as §1, §2, §3, §4

[1] = Metabolic stability assay, human liver microsomes (HLM); assay type: in vitro ADME; conditions: 10 min
Source text: Controls were processed and analyzed like the test compounds.

in vitro = conditions: mouse, 10 min, 3 µM, pH 7.4
Experimental: Metabolic stability assay was performed at Emory University's Department of Chemistry or by Bristol Myers Squibb. The method used by Emory University's Department of Chemistry is described below.
Each method was developed in the presence of an internal standard (ISTD) d5-7-ethoxy coumarin. The column temperature was maintained at 40° C. for most of the samples otherwise noted. The detection was operated in the Agilent JetStream electrospray positive ionization using multiple reaction monitoring mode (MRM).
Other MS conditions were as follows: dwell time 100 ms; gas flow 10 L/min; nebulizer pressure 45 psi; delta EMV 200 V; fragmentor voltage and collision energy for individual compounds vary.
Test compounds were dissolved in 100% DMSO or 100% MeOH to make 10 mM stock solutions. Verapamil (Sigma Aldrich) aided as a positive control and was dissolved in 100% DMSO to make 10 mM stock solutions. The 10 mM stock solution of test and control compounds were further diluted in potassium phosphate buffer (100 mM, pH 7.4) to 500 μM to ensure the organic solvent content was <0.2%. Human liver microsomes (HLMs) were purchased from Xenotech at 20 mg/mL. NADPH (Sigma Aldrich) 10 mM stocks were prepared in deionized water.
The HLM assay was prepared in a 1.5 mL Eppendorf tube with a final volume of 1100 μL for duplicate runs. Each reaction contained phosphate buffer (928.4 μL), liver microsomes (55 μL), and test compound resulting in a final concentration of 3 μM (6.6 μL of 500 μM). The reaction was initiated with 110 μL of 10 mM NADPH. […] Before centrifugation each of the aliquoted tubes were vortexed to make sure compounds were in the solution. The aliquots were centrifuged at 12,000 g for 5 min and the supernatant removed and placed in an LC-MS vial. Each time point was assessed using LC-MS and the area, based on the extracted ion, was integrated with respect to the ISTD. […] A no-NADPH negative control with test or control compound was performed in a single run (150 μL) at the longest time point. Controls were processed and analyzed like the test compounds. Each time point was run in duplicates followed by in-between blank washes to avoid the carryover and to equilibrate the column.
The MLM assay was performed using the same procedures as those described above for the HLM assay.

PAMPA assay = assay type: in vitro ADME; conditions: pH 7.4
Experimental: PAMPA assay was performed by BioAssay Systems Services or Bristol Myers Squibb. The method used by BioAssay Systems Services is described below.
Stock solutions in DMSO for all compounds (10 mM) were thawed. The assay was performed in duplicate by following the PAMPA-096 procedure for sample plating. 4% Lecithin in dodecane solution was prepared by resuspending the dried lecithin with 750 μL dodecane. PBS pH 7.4 was used as the diluent. Two sets of plates and equilibrium solutions were incubated for 4 hours at room temperature. Acceptor and equilibrium solutions were analyzed in a UV plate. OD280 nm was used for High Permeability Control (chloramphenicol). OD270 nm was used for Medium Permeability Control (diclofenac) and Low Permeability Control (theophylline). OD254 nm was used for the test compounds.
Data analysis was performed by using the peak absorbance for each respective test compound and Permeability Control to determine the Permeability Rate (Pe) via the following equation: […]
where ODA is the absorbance of Acceptor Solution, ODE is the absorbance of the Equilibrium Standard, and C is determined by the equation below: […]
where Donor Volume (VD) is 0.2 cm^3, Acceptor Volume (VA) is 0.3 cm^3, and Membrane Area (Area) is 0.24 cm^2.

CXCR4 [2] = molecular target: T3, CXCR4 (Homo sapiens, UniProt P61073); experiment: Calcium flux assay (antagonist mode, SDF-1α challenge); assay type: cell-based; set-up: Eurofins or Bristol Myers Squibb (contract assay); conditions: read-out: CXCR4 Ca^+2 Flux IC50
Experimental: Calcium flux assay was performed by Eurofins or Bristol Myers Squibb. The method used by Eurofins is described below.
Compound plate preparation: Vehicle controls and positive controls were prepared to ensure all assays were properly controlled. All wells were prepared using the Eurofins Discovery Services GPCRProfiler® Assay Buffer. The GPCRProfiler® Assay Buffer was a modified Hanks Balanced Salt Solution (HBSS) where HBSS was supplemented to contain 20 mM HEPES and 2.5 mM Probenecid at pH 7.4.
Agonist assay (first addition): Compound(s) supplied were plated in duplicate for each concentration assayed. During the agonist assay, the concentration(s) reflects accommodation for the dilution of compound during the antagonist assay. Please see below for further details. […] The reference agonist for each GPCR was included at Emax (the concentration where the reference agonist elicited a maximal response). The agonist assay was conducted on a FLIPR^TETRA instrument where the test compound(s), vehicle controls, and reference agonist were added to the assay plate after a fluorescence/luminescence baseline was established. The agonist assay was a total of 180 seconds and was used to assess each compound's ability to activate each GPCR assayed. Upon completion of the three minute agonist assay, the assay plate was incubated at 25° C. for a further two minutes. After the incubation period the antagonist assay was initiated.
The antagonist assay was conducted using the same assay plate that was used for the agonist assay. The antagonist assay was conducted on a FLIPR^TETRA instrument where vehicle controls and challenge concentration of reference agonist were added to appropriate wells. The antagonist assay was a total of 180 seconds and was used to assess each compound's ability to inhibit each GPCR assayed.
Data Processing—All plates were subjected to appropriate baseline corrections. Once baseline corrections were processed, maximum fluorescence/luminescence values were exported, and data manipulated to calculate percentage activation and percentage inhibition. […] Data manipulation calculation is as followed: ((Max RLU)−(Baseline Avg.))/((Positive Avg.)−(Baseline Avg.)).

CXCR4 [3] = molecular target: T3, CXCR4; experiment: cAMP assay in CXCR4-CHO-Glo cells (GloSensor, forskolin + SDF-1α); assay type: cell-based; set-up: expressed in transfected cells
Source text: Materials, reagents, and instrument—Advanced DMEM (Gibco), trypsin EDTA (0.05%, phenol red), L-glutamine, HBSS buffer with and without Ca^2+/Mg^2+ (Gibco), antibiotic-antimycotic (Gibco), hygromycin B, and geneticin selective antibiotic (G418 sulfate) were purchased from Invitrogen. Forskolin (Tocris), SDF-1α (R&D Systems), HEPES (Sigma Aldrich), FBS (Atlanta Biologicals), D-luciferin (Gold Biotechnology), sterile 60 mm tissue culture dishes, and 96-well sterile tissue culture plates were purchased from Corning.
The assay targeted CXCR4 expressed in CHO-gloSensor cells. It monitored GPCR activation based on forskolin-stimulated cAMP production in cells. The assay used a genetically encoded biosensor with its cAMP binding domain fused to luciferase. Binding of cAMP to the cAMP binding domain changed the conformation of the biosensor, leading to the activation of luciferase. The intensity of the luciferase signal (light output) resulted from the oxidation of D-luciferin to oxyluciferin is proportional to the amount of cAMP produced in the cells.
The assay was performed in triplicate using live cells in 96-well tissue culture plates. Cells were pre-incubated in the dark at room temperature for one hour in the presence of D-luciferin. Bioluminescence was quantified before and after the agonist/antagonist addition. Stock solution of forskolin and SDF-1a, was prepared in Locke-Luc buffer. Stock solutions of the test compounds were prepared in DMSO (10 mM); they were diluted by Locke's buffer for use in the assay.
CHO-Glo cells, a cell line stably expressing the GloSensor cAMP biosensor (Promega), were transfected with cDNA encoding human CXCR4 in Pires-AcGFP1 (Clontech) and a stable cell line was isolated (CXCR4-CHO-Glo cells). The CXCR4-CHO-Glo cells were grown to confluency on 60 mm tissue culture dishes. After trypsinization, the cells were plated on 96-well plates and incubated overnight. The next day, culture media in each well was aspirated and replaced with 100 μL Locke's buffer containing 4 mM D-luciferin, followed by incubation in the dark for one hour. Before the addition of agonist/antagonist, each plate was read five times at 2 min intervals to obtain basal bioluminescence values from each well. The average of these five pre-readings was used to normalize each well's response to account for differences in GloSensor expression and cell density. After five pre-readings, cAMP formation was initiated with the addition of 50 μL solution of test compound (TC) in Locke Luc buffer containing forskoline and SDF-1α. […] Luminescence was measured immediately after the addition of the antagonist solution. The measurements were taken every two minutes for 30 minutes in kinetics mode after antagonist addition. IC50 values were calculated from the 4-parameter logistic equation using Prism GraphPad.

T3 sequence (P61073 whole entry): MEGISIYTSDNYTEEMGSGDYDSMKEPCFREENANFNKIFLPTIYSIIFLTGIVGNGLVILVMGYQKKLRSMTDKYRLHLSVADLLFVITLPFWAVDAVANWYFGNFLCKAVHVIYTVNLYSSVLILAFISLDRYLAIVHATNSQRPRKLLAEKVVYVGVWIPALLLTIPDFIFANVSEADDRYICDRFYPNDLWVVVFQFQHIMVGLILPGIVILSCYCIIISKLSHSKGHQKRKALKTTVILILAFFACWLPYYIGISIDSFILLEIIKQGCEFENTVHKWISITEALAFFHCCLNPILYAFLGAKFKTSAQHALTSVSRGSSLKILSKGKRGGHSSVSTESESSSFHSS
T2 sequence (P10635 whole entry): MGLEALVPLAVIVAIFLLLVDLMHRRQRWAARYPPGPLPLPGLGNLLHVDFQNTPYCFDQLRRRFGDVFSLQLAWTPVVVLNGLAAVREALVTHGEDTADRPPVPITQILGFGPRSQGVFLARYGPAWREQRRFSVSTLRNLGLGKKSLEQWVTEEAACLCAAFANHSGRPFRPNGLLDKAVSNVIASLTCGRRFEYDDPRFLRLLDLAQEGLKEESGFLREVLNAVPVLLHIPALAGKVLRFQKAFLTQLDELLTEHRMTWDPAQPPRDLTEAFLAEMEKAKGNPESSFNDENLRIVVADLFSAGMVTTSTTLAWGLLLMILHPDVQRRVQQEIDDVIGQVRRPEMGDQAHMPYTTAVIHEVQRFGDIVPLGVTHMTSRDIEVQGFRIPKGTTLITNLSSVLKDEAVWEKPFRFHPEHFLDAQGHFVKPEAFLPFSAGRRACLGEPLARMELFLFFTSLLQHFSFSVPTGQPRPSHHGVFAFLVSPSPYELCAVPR
T1 sequence (P08684 whole entry): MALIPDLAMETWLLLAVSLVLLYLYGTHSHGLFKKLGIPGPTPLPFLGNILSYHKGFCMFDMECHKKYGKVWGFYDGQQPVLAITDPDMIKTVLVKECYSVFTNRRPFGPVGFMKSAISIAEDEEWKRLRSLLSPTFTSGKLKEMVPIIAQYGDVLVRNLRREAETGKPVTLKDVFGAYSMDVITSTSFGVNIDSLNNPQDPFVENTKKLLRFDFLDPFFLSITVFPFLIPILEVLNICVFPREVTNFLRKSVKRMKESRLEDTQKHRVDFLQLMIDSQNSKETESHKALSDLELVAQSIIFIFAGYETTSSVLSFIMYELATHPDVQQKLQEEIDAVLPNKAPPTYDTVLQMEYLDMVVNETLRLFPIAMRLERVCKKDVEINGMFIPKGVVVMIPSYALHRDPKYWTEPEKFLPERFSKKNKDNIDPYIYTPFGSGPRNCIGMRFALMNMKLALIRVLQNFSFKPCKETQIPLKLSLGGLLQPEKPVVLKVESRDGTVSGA
CYP450 isoforms 2D6, sequence (P10635 whole entry, canonical isoform): as the sequence (P10635 whole entry) above
CYP450 isoforms 3A4, sequence (P08684 whole entry, canonical isoform): as the sequence (P08684 whole entry) above

Structure (SMILES) | inhibition of CYP450 isoform 3A4 (CYP450 isoforms 3A4) | inhibition of CYP450 isoform 2D6 (CYP450 isoforms 2D6) | IC50 (CYP3A4) [µM] | IC50 (CYP2D6) [µM] | Liver Microsomes % rem. @ 10 min. H [1] [%] | Liver Microsomes % rem. @ 10 min. M (in vitro) [%] | Papp at 4 h (PAMPA assay) [×10⁻⁶ cm/s] | IC50 (CXCR4 [2]) [nM] | IC50 (CXCR4 [3]) [nM]
NCCCCN(Cc1nc2ccccc2[nH]1)[C@H]1CCCc2cccnc21 [AMD11070, mavorixafor] | significant inhibition | significant inhibition |  |  |  |  |  |  | 
c1ccc2c(c1)CN[C@@H](CN(CCCCN1CCOCC1)[C@H]1CCCc3cccnc31)C2 [EMU-178] |  |  | > 20 | 0.44 | 52.6 | 3.68 | 21.2 | 82.5 | 
CN(C[C@H]1Cc2c(cccc2N2CCN(C(=O)OCc3ccccc3)CC2)CN1)[C@H]1CCCc2cccnc21 [EMU-291] |  |  | > 20 | > 20 | 35.6 | 66.4 |  |  | 2320
c1cnc2c(c1)CN[C@H](CN(CCCCN1CCOCC1)[C@@H]1CCCc3cccnc31)C2 [EMU-204, (R)—N-(4-morpholinobutyl)-N—(((S)-5,6,7,8-tetrahydro-1,6-naphthyridin-7-yl)methyl)-5,6,7,8-tetrahydroquinolin-8-amine] |  |  | > 20 | > 20 | 100 | 19.6 | 21.5 | 270 | 
